Measured values reported in patent US6868343B1, “Interactions between substances and surfaces that are made up of amphiphilic molecules” (NIMBUS Biotechnologie GmbH, priority 1998, dated 2005).

Tests used:
[1] = Membrane-water distribution by HPLC on solid-supported egg lecithin bilayer (column A1); type: physicochemical; settings: column A1, pH 7.4, 23° C., calculated from retention time via calibration curve; read-out: logDcal-PC, pH 7.4
Text: A natural mixture of egg lecithin and 0.03 mole % fluorescence marker 1-hexadecanoyl-2-(1-pyrenedecanoyl)-sn-glycero-3-phosphocholine is suspended in chloroform and the solvent completely removed in vacuo. The lipids are subsequently dispersed in the aqueous buffer (pH 7.4) and small, unilamellar vesicles are produced by ultrasonic treatment. By mixing with spherical, porous silicate structures (silicate gel with 10 μm sphere diameter and 400 nm pore size) at temperatures higher than the Tm of the lipids, the corresponding solid-supported lipid bilayer is obtained by the spontaneous fusion of the vesicles on the silicate surface. […]
For determining the dead time t0 in the selected system, 5 μl of a 5 mM potassium iodide solution is injected into buffer A. In the case of the HPLC column A1 in reproducible manner a t0 of 0.64 min is measured and for column A2 t0=0.58 min. […]
The quantities of compound to be injected are determined on the one hand by its adsorption tendency on the stationary phase and on the other by the detectability of the compound. As a rule most reference compounds can be detected using spectroscopic methods (here UV/V is spectroscopy at 210 nm). The measured retention times tR are directly correlated with the octanol/water partition coefficient using a prior art equation system. […]
In the present example logD cal-PC, pH 7.4 is determined.

[2] = Partition coefficient between solid-supported membrane C (DEPC) and aqueous compartment, UV/Vis at 304 nm; type: physicochemical; settings: pH 7.4, tetracaine 25 μm, buffer A
Text: The process for determining lipid binding constants with the aid of solid, biocompatible surfaces can also be used for pharmaceuticals. […] For an analyzing the partition coefficient of this pharmaceutical between the lipid and water phases, as described in example 1, porous silicate structures are coated with a charge-neutral membrane of 99.97 mole % zwitterionic lecithin 1,2-dielaidoyl-sn-3-glycero-3-phosphocholine (DEPC) and 0.03 mole % fluorescence marker 1-hexadecanoyl-2-(-pyrenedecanoyl)-sn-glycero-3-phosphocholine (hereinafter called membrane C).
The active agent tetracaine to be analyzed is placed in double sample form in aqueous solution (buffer A) in a constant concentration of 25 μm and mixed with different quantities of membrane C (concentration range of the lipid 5*10^−5−2*10^−3 mole/l). […] The free active agent concentration in the supernatant material can be rapidly determined in the case of the UV-active compound tetracaine with the aid of UV/Vis spectroscopy (detection at 304 nm). Alternatively the remaining lipid-free supernatant materials can be analyzed using chromatographic methods (HPLC, gas chromatography, etc.). […]
The partition coefficient found for tetracaine between the solid-supported membrane C and the aqueous compartment at the physiologically relevant pH-value 7.4 is 1.4. The binding constants are calculated according to standard procedures.

## CC(=O)CC(c1ccccc1)c1c(O)c2ccccc2oc1=O (centres unmarked) [Warfarin, 3-(-acetonylbenzyl)-4-hydroxycoumarin]
[1]
  chromatographic logD: 1.1

## CCCCNc1ccc(C(=O)OCCN(C)C)cc1 [tetracaine]
[2]
  partition coefficient between solid-supported membrane C and aqueous compartment: 1.4
